Results as given in PubChem BioAssay AID1745844 (Carcinogenic Potency Database (CPDB), 2022).
Calls of active or inactive are those of the source. The rule behind the calls is not given here.

Tested on: rodent lifetime carcinogenesis bioassay, tumor incidence TD50
Assay: chronic cancer bioassays in animals – CPDB, compiled studies (AID 1745844)

In the case of `OCC(CO)N[C@H]1C[C@](O)(CO)[C@@H](O)[C@H](O)[C@H]1O`, the carcinogen call (mouse, strain Charles River CD1, females, by gavage, site: liver, lesion: hepatocellular adenoma, dosed 101 weeks, study length 101 weeks) is reported as “negative (inactive)”, the carcinogen call (mouse, strain Charles River CD1, females, by gavage, site: lung, lesion: alveolar/bronchiolar adenoma, dosed 101 weeks, study length 101 weeks) is reported as “negative (inactive)” and the carcinogen call (mouse, strain Charles River CD1, males, by gavage, site: liver, lesion: hepatocellular adenoma, dosed 83 weeks, study length 83 weeks) is reported as “negative (inactive)”. For the same molecule, the carcinogen call (mouse, strain Charles River CD1, males, by gavage, site: liver, lesion: hepatocellular carcinoma, dosed 83 weeks, study length 83 weeks) was “negative (inactive)”, the TD50 (mouse, strain Charles River CD1, males, by gavage, site: lung, lesion: alveolar/bronchiolar adenoma, dosed 83 weeks, study length 83 weeks) was 1370 mg/kg/day (inactive) and the carcinogen call (rat, strain F344/DuCrj, females, by gavage, site: liver, lesion: one or several types, types not named, dosed 104 weeks, study length 104 weeks) was “negative (inactive)”. For the same molecule, the TD50 (rat, strain F344/DuCrj, females, by gavage, site: mammary gland, lesion: fibroadenoma, dosed 104 weeks, study length 104 weeks) was 119 mg/kg/day (inactive), the TD50 (rat, strain F344/DuCrj, males, by gavage, site: liver, lesion: hepatocellular adenoma, dosed 104 weeks, study length 104 weeks) was 575 mg/kg/day (inactive) and the TD50 (rat, strain F344/DuCrj, males, by gavage, site: liver, lesion: hepatocellular carcinoma, dosed 104 weeks, study length 104 weeks) was 1740 mg/kg/day (inactive). For the same molecule, the TD50 (rat, strain F344/DuCrj, males, by gavage, site: testis, lesion: interstitial-cell tumor, dosed 104 weeks, study length 104 weeks) was 9.27 mg/kg/day (inactive).
`CN(C)N=Nc1nc[nH]c1C(N)=O` gave a TD50 (mouse, strain Swiss, females, i.p., site: all sites, lesion: lymphosarcoma, dosed 26 weeks, study length 61 weeks) of 8 mg/kg/day, a TD50 (mouse, strain Swiss, females, i.p., site: any site (literature study), lesion: benign tumor, dosed 26 weeks, study length 61 weeks) of 7.03 mg/kg/day and a TD50 (mouse, strain Swiss, females, i.p., site: any site (literature study), lesion: malignant tumor, dosed 26 weeks, study length 61 weeks) of 0.807 mg/kg/day. The TD50 (mouse, strain Swiss, females, i.p., site: lung, lesion: several types, types named in the paper, dosed 26 weeks, study length 61 weeks) was 0.595 mg/kg/day, the TD50 (mouse, strain Swiss, females, i.p., site: spleen, lesion: hemangioendothelioma, dosed 26 weeks, study length 61 weeks) was 14.5 mg/kg/day and the TD50 (mouse, strain Swiss, females, i.p., site: uterus, lesion: adenocarcinoma, dosed 26 weeks, study length 61 weeks) was 3.2 mg/kg/day. The TD50 (mouse, strain Swiss, males, i.p., site: all sites, lesion: lymphatic leukemia, dosed 26 weeks, study length 78 weeks) was 13 mg/kg/day, the TD50 (mouse, strain Swiss, males, i.p., site: all sites, lesion: lymphosarcoma, dosed 26 weeks, study length 78 weeks) was 16.1 mg/kg/day and the TD50 (mouse, strain Swiss, males, i.p., site: any site (literature study), lesion: benign tumor, dosed 26 weeks, study length 78 weeks) was 10.6 mg/kg/day. The TD50 (mouse, strain Swiss, males, i.p., site: any site (literature study), lesion: malignant tumor, dosed 26 weeks, study length 78 weeks) was 1.54 mg/kg/day, the TD50 (mouse, strain Swiss, males, i.p., site: any site (literature study), lesion: several types, types named in the paper, dosed 26 weeks, study length 78 weeks) was 0.813 mg/kg/day and the TD50 (mouse, strain Swiss, males, i.p., site: liver, lesion: several types, types named in the paper, dosed 26 weeks, study length 78 weeks) was 98.8 mg/kg/day. For the same molecule, the TD50 (mouse, strain Swiss, males, i.p., site: lung, lesion: several types, types named in the paper, dosed 26 weeks, study length 78 weeks) was 2.57 mg/kg/day, the TD50 (mouse, strain Swiss, males, i.p., site: spleen, lesion: several types, types named in the paper, dosed 26 weeks, study length 78 weeks) was 5.17 mg/kg/day and the TD50 (rat, strain Sprague-Dawley, females, in feed, site: mammary gland, lesion: adenofibroma, dosed 46 weeks, study length 60 weeks) was 0.71 mg/kg/day. The TD50 (rat, strain Sprague-Dawley, females, in feed, site: thymus gland, lesion: lymphosarcoma, dosed 46 weeks, study length 60 weeks) was 4.21 mg/kg/day and the TD50 (rat, strain Sprague-Dawley, females, in feed, site: uterus, lesion: leiomyosarcoma, dosed 46 weeks, study length 60 weeks) was 6.55 mg/kg/day.
For `Cc1ncc([N+](=O)[O-])n1CCO`, the TD50 (mouse, strain Swiss, females, in feed, site: all sites, lesion: malignant lymphoma, dosed 122 weeks, study length 128 weeks) was 1300 mg/kg/day, the TD50 (mouse, strain Swiss, females, in feed, site: liver, lesion: several types, types named in the paper, dosed 122 weeks, study length 128 weeks) was 24200 mg/kg/day (inactive) and the TD50 (mouse, strain Swiss, females, in feed, site: lung, lesion: several types, types named in the paper, dosed 122 weeks, study length 128 weeks) was 937 mg/kg/day. For the same molecule, the TD50 (mouse, strain Swiss, males, in feed, site: liver, lesion: several types, types named in the paper, dosed 116 weeks, study length 124 weeks) was 20700 mg/kg/day (inactive), the TD50 (mouse, strain Swiss, males, in feed, site: lung, lesion: several types, types named in the paper, dosed 116 weeks, study length 124 weeks) was 347 mg/kg/day and the TD50 (rat, strain Sas:MRC(WI)BR, females, in feed, site: any site (literature study), lesion: several types, types named in the paper, dosed 147 weeks, study length 151 weeks) was 139 mg/kg/day. The TD50 (rat, strain Sas:MRC(WI)BR, females, in feed, site: liver, lesion: hepatocellular carcinoma, dosed 147 weeks, study length 151 weeks) was 1860 mg/kg/day, the TD50 (rat, strain Sas:MRC(WI)BR, females, in feed, site: mammary gland, lesion: fibroadenoma, dosed 147 weeks, study length 151 weeks) was 431 mg/kg/day and the TD50 (rat, strain Sas:MRC(WI)BR, females, in feed, site: mammary gland, lesion: several types, types named in the paper, dosed 147 weeks, study length 151 weeks) was 446 mg/kg/day. The carcinogen call (rat, strain Sas:MRC(WI)BR, females, in feed, site: pituitary gland, lesion: several types, types named in the paper, dosed 147 weeks, study length 151 weeks) was “negative (inactive)”, the TD50 (rat, strain Sas:MRC(WI)BR, females, in feed, site: subcutaneous tissue, lesion: several types, types named in the paper, dosed 147 weeks, study length 151 weeks) was 4050 mg/kg/day and the TD50 (rat, strain Sas:MRC(WI)BR, females, in feed, site: uterus, lesion: several types, types named in the paper, dosed 147 weeks, study length 151 weeks) was 2970 mg/kg/day (inactive). It also gave a TD50 (rat, strain Sas:MRC(WI)BR, males, in feed, site: any site (literature study), lesion: several types, types named in the paper, dosed 140 weeks, study length 144 weeks) of 211 mg/kg/day, a TD50 (rat, strain Sas:MRC(WI)BR, males, in feed, site: liver, lesion: hepatocellular carcinoma, dosed 140 weeks, study length 144 weeks) of 45900 mg/kg/day and a TD50 (rat, strain Sas:MRC(WI)BR, males, in feed, site: mammary gland, lesion: fibroadenoma, dosed 140 weeks, study length 144 weeks) of 2490 mg/kg/day. It also gave a TD50 (rat, strain Sas:MRC(WI)BR, males, in feed, site: pituitary gland, lesion: several types, types named in the paper, dosed 140 weeks, study length 144 weeks) of 731 mg/kg/day, a TD50 (rat, strain Sas:MRC(WI)BR, males, in feed, site: subcutaneous tissue, lesion: several types, types named in the paper, dosed 140 weeks, study length 144 weeks) of 2360 mg/kg/day and a TD50 (rat, strain Sas:MRC(WI)BR, males, in feed, site: testis, lesion: several types, types named in the paper, dosed 140 weeks, study length 144 weeks) of 993 mg/kg/day. For the same molecule, the TD50 (rat, strain Sprague-Dawley, females, in feed, site: any site (literature study), lesion: several types, types named in the paper, dosed 66 weeks, study length 75 weeks) was 61.1 mg/kg/day (inactive) and the TD50 (rat, strain Sprague-Dawley, females, in feed, site: uterus, lesion: adenomyoma, dosed 66 weeks, study length 75 weeks) was 180 mg/kg/day (inactive).
